Results: PubChem BioAssay (NCI)
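Compound exposure: 48 hours, 5 concentrations, 96-well plates. Abbreviation: GI50, concentration required for 50% inhibition of growth. At the TGI there is no net growth.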

Tests used:
Assay in all cases: growth of human tumour cells (NCI), 48 h
SNB-19 CNS = system: SNB-19 CNS
UACC-257 melanoma = system: UACC-257 melanoma
NCI-H23 lung = system: NCI-H23 lung
SK-MEL-2 melanoma = system: SK-MEL-2 melanoma
T-47D breast = system: T-47D breast
HCT-116 colon = system: HCT-116 colon
MDA-MB-435 = system: MDA-MB-435
HT29 colon = system: HT29 colon
U251 CNS = system: U251 CNS
NCI-H226 lung = system: NCI-H226 lung
RXF 393 renal = system: RXF 393 renal
HS 578T breast = system: HS 578T breast
HOP-62 NSCLC = system: HOP-62 NSCLC
UO-31 renal = system: UO-31 renal
CCRF-CEM leukemia = system: CCRF-CEM leukemia
MDA-MB-231 breast = system: MDA-MB-231 breast
M14 melanoma = system: M14 melanoma
A498 renal = system: A498 renal
SF-268 CNS = system: SF-268 CNS
SN12C renal = system: SN12C renal
DU-145 prostate = system: DU-145 prostate
RPMI-8226 leukemia = system: RPMI-8226 leukemia
ACHN renal = system: ACHN renal
HL-60(TB) leukemia = system: HL-60(TB) leukemia
NCI-H522 lung = system: NCI-H522 lung
SK-OV-3 ovarian = system: SK-OV-3 ovarian
K-562 leukemia = system: K-562 leukemia
KM12 colon = system: KM12 colon
MALME-3M melanoma = system: MALME-3M melanoma
MOLT-4 leukemia = system: MOLT-4 leukemia
TK-10 renal = system: TK-10 renal
BT-549 breast = system: BT-549 breast
HCC-2998 colon = system: HCC-2998 colon
OVCAR-5 ovarian = system: OVCAR-5 ovarian
SF-539 CNS = system: SF-539 CNS
UACC-62 melanoma = system: UACC-62 melanoma
NCI-H460 lung = system: NCI-H460 lung
LOX IMVI melanoma = system: LOX IMVI melanoma
HCT-15 colon = system: HCT-15 colon
MCF7 breast = system: MCF7 breast
SNB-75 CNS = system: SNB-75 CNS
OVCAR-3 ovarian = system: OVCAR-3 ovarian
EKVX NSCLC = system: EKVX NSCLC
SR leukemia = system: SR leukemia
SK-MEL-28 melanoma = system: SK-MEL-28 melanoma
OVCAR-8 ovarian = system: OVCAR-8 ovarian
HOP-92 NSCLC = system: HOP-92 NSCLC
SF-295 CNS = system: SF-295 CNS
CAKI-1 renal = system: CAKI-1 renal
OVCAR-4 ovarian = system: OVCAR-4 ovarian
NCI/ADR-RES ovarian = system: NCI/ADR-RES ovarian
786-0 renal = system: 786-0 renal
IGROV1 ovarian = system: IGROV1 ovarian
A549 NSCLC = system: A549 NSCLC
SK-MEL-5 melanoma = system: SK-MEL-5 melanoma
PC-3 prostate = system: PC-3 prostate
COLO 205 colon = system: COLO 205 colon
SW-620 colon = system: SW-620 colon

## CCCCOC(=O)NC(Nc1ccc(S(N)(=O)=O)cc1)(C(F)(F)F)C(F)(F)F
SNB-19 CNS
  TGI: > 100000 nM
UACC-257 melanoma
  TGI: > 100000 nM
NCI-H23 lung
  TGI: > 100000 nM
SK-MEL-2 melanoma
  TGI: > 100000 nM
T-47D breast
  TGI: > 100000 nM
HCT-116 colon
  TGI: > 100000 nM
MDA-MB-435
  TGI: > 100000 nM
HT29 colon
  TGI: > 100000 nM
U251 CNS
  TGI: > 100000 nM
NCI-H226 lung
  TGI: > 100000 nM
RXF 393 renal
  TGI: > 100000 nM
HS 578T breast
  TGI: > 100000 nM
HOP-62 NSCLC
  TGI: > 100000 nM
UO-31 renal
  TGI: > 100000 nM
CCRF-CEM leukemia
  TGI: > 100000 nM
MDA-MB-231 breast
  TGI: > 100000 nM
M14 melanoma
  TGI: > 100000 nM
A498 renal
  TGI: > 100000 nM
SF-268 CNS
  TGI: > 100000 nM
SN12C renal
  TGI: > 100000 nM
DU-145 prostate
  TGI: > 100000 nM
RPMI-8226 leukemia
  TGI: > 100000 nM
ACHN renal
  TGI: > 100000 nM
HL-60(TB) leukemia
  TGI: > 100000 nM
NCI-H522 lung
  TGI: > 100000 nM
SK-OV-3 ovarian
  TGI: > 100000 nM
K-562 leukemia
  TGI: > 100000 nM
KM12 colon
  TGI: > 100000 nM
MALME-3M melanoma
  TGI: > 100000 nM
MOLT-4 leukemia
  TGI: > 100000 nM
TK-10 renal
  TGI: > 100000 nM
BT-549 breast
  TGI: > 100000 nM
HCC-2998 colon
  TGI: > 100000 nM
OVCAR-5 ovarian
  TGI: > 100000 nM
SF-539 CNS
  TGI: > 100000 nM
UACC-62 melanoma
  TGI: > 100000 nM
NCI-H460 lung
  TGI: > 100000 nM
LOX IMVI melanoma
  TGI: > 100000 nM
HCT-15 colon
  TGI: > 100000 nM
MCF7 breast
  TGI: > 100000 nM
SNB-75 CNS
  TGI: > 100000 nM
OVCAR-3 ovarian
  TGI: > 100000 nM
EKVX NSCLC
  TGI: > 100000 nM
SR leukemia
  TGI: > 100000 nM
SK-MEL-28 melanoma
  TGI: > 100000 nM

## COC(=O)[C@@H](C[C@H](Cc1ccccc1)NC(=O)c1csc([C@@H](C[C@H](C(C)C)N(C)C(=O)[C@@H](NC(=O)[C@H]2CCCCN2C)C(C)C)OC(C)=O)n1)NC(=O)OCc1ccccc1
SNB-19 CNS
  GI50: < 0.833 nM
  TGI: > 8330 nM
UACC-257 melanoma
  GI50: 30.9 nM
  TGI: 2590 nM
OVCAR-8 ovarian
  GI50: < 0.833 nM
  TGI: > 8330 nM
NCI-H23 lung
  GI50: 1.19 nM
  TGI: > 8330 nM
HOP-92 NSCLC
  GI50: 2.36 nM
  TGI: > 8330 nM
SK-MEL-2 melanoma
  GI50: < 0.833 nM
  TGI: 3450 nM
HCT-116 colon
  GI50: < 0.833 nM
MDA-MB-435
  GI50: < 0.833 nM
  TGI: < 0.833 nM
SF-295 CNS
  GI50: 1.33 nM
  TGI: > 8330 nM
CAKI-1 renal
  GI50: 1.66 nM
  TGI: > 8330 nM
HT29 colon
  GI50: < 0.833 nM
  TGI: > 8330 nM
OVCAR-4 ovarian
  GI50: 7.17 nM
  TGI: > 8330 nM
U251 CNS
  GI50: < 0.833 nM
  TGI: > 2650 nM
NCI-H226 lung
  GI50: 1.68 nM
  TGI: 136 nM
RXF 393 renal
  GI50: 0.948 nM
  TGI: > 8330 nM
HS 578T breast
  GI50: < 0.833 nM
  TGI: > 3550 nM
HOP-62 NSCLC
  GI50: 1.12 nM
  TGI: > 8330 nM
UO-31 renal
  GI50: 11.3 nM
  TGI: > 8330 nM
CCRF-CEM leukemia
  GI50: < 0.833 nM
  TGI: > 7920 nM
MDA-MB-231 breast
  GI50: 1.31 nM
  TGI: > 6730 nM
M14 melanoma
  GI50: < 0.833 nM
  TGI: 412 nM
A498 renal
  GI50: 1.1 nM
  TGI: 10.4 nM
SF-268 CNS
  GI50: 1.37 nM
  TGI: > 8330 nM
SN12C renal
  GI50: 1.46 nM
  TGI: > 8330 nM
DU-145 prostate
  GI50: < 0.833 nM
RPMI-8226 leukemia
  GI50: < 0.833 nM
  TGI: 2490 nM
NCI/ADR-RES ovarian
  GI50: 43.9 nM
  TGI: > 1690 nM
ACHN renal
  GI50: 2.93 nM
  TGI: > 8330 nM
HL-60(TB) leukemia
  GI50: < 0.833 nM
  TGI: 1.62 nM
NCI-H522 lung
  GI50: < 0.833 nM
  TGI: 40 nM
SK-OV-3 ovarian
  GI50: 2.65 nM
  TGI: > 8330 nM
786-0 renal
  GI50: 1.65 nM
  TGI: > 8330 nM
K-562 leukemia
  GI50: < 0.833 nM
  TGI: > 3180 nM
KM12 colon
  GI50: < 0.833 nM
  TGI: > 8330 nM
IGROV1 ovarian
  GI50: < 0.833 nM
  TGI: > 7680 nM
A549 NSCLC
  GI50: 1.86 nM
  TGI: > 8330 nM
MALME-3M melanoma
  GI50: < 0.833 nM
  TGI: 2680 nM
MOLT-4 leukemia
  GI50: < 0.833 nM
  TGI: > 8330 nM
TK-10 renal
  GI50: 107 nM
  TGI: > 8330 nM
SK-MEL-5 melanoma
  GI50: < 0.833 nM
  TGI: 38.6 nM
BT-549 breast
  GI50: 1.49 nM
  TGI: 83.9 nM
HCC-2998 colon
  GI50: < 0.833 nM
  TGI: > 2890 nM
OVCAR-5 ovarian
  GI50: 5.38 nM
  TGI: > 8330 nM
SF-539 CNS
  GI50: < 0.833 nM
  TGI: 3.85 nM
UACC-62 melanoma
  GI50: < 0.833 nM
  TGI: > 8330 nM
PC-3 prostate
  GI50: < 0.833 nM
  TGI: > 8330 nM
NCI-H460 lung
  GI50: < 0.833 nM
  TGI: > 8330 nM
LOX IMVI melanoma
  GI50: < 0.833 nM
  TGI: > 8330 nM
COLO 205 colon
  GI50: < 0.833 nM
HCT-15 colon
  GI50: 4.54 nM
  TGI: > 8330 nM
MCF7 breast
  GI50: < 0.833 nM
  TGI: > 8330 nM
SNB-75 CNS
  GI50: < 0.833 nM
  TGI: > 8330 nM
OVCAR-3 ovarian
  GI50: < 0.833 nM
EKVX NSCLC
  GI50: 17.5 nM
  TGI: > 8330 nM
SW-620 colon
  GI50: < 0.833 nM
  TGI: > 8330 nM
SR leukemia
  GI50: < 0.833 nM
  TGI: > 3400 nM
SK-MEL-28 melanoma
  GI50: 906 nM
  TGI: 2390 nM
